In ChEMBL document CHEMBL3046330, “Synthesis and biological activity of hydrazidehydrazones and their corresponding 3-acetyl-2,5-disubstituted-2,3-dihydro-1,3,4-oxadiazoles” (Med Chem Res, 2012):
pIC50: −log10 of the molar value. ≈ marks a conversion by molar mass, not a printed value. Calls of active or inactive are those of the source. No cut-off for these calls is given here.

Columns and labels:
[1] = test system: RAW264.7; assay: Cytotoxicity against Mus musculus (mouse) RAW264.7 cells up to 25 ug/ml; format: cell-based
[2] = test system: HL-60; assay: Antioxidant activity in PMA-stimulated Homo sapiens (human) HL60 cells assessed as inhibition of intracellular ROS generation up to 25 ug/ml incubated for 30 min prior to PMA stimulation measured after 30 min by DCFH-DA assay relative to vehicle-treated control; format: functional, cell-based
[3] = test system: HL-60; assay: Cytotoxicity against Homo sapiens (human) HL60 cells; format: cell-based
[4] = test system: Vero; assay: Cytotoxicity against Chlorocebus aethiops (African green monkey) Vero cells assessed as cell viability up to 25 ug/ml after 48 hr by neutral red assay; format: cell-based; details: chlorocebus sabaeus
[5] = Cytotoxicity against Sus scrofa (pig) LLC-PK11 cells assessed as cell viability up to 25 ug/ml after 48 hr by neutral red assay; format: cell-based; details: llc-pk11, 48 h
[6] = test system: SK-MEL; assay: Cytotoxicity against Homo sapiens (human) SK-MEL cells assessed as cell viability up to 25 ug/ml after 48 hr by neutral red assay; format: functional, cell-based
[7] = test system: KB; assay: Cytotoxicity against Homo sapiens (human) KB cells assessed as cell viability up to 25 ug/ml after 48 hr by neutral red assay; format: functional, cell-based
[8] = test system: BT-549; assay: Cytotoxicity against Homo sapiens (human) BT549 cells assessed as cell viability up to 25 ug/ml after 48 hr by neutral red assay; format: functional, cell-based
[9] = test system: Colletotrichum fragariae; assay: Antifungal activity against Colletotrichum fragariae at 0.3 to 30 uM after 48 to 72 hr by broth microdilution method; format: functional, organism-based
[10] = test system: Candida albicans; assay: Antifungal activity against Candida albicans NRRL Y-12983 after 24 hr by NCCLS broth microdilution method; format: functional; details: NRRL Y-12983, 24 h
[11] = test system: Nakaseomyces glabratus; assay: Antifungal activity against Candida glabrata clinical isolate after 24 hr by NCCLS broth microdilution method; format: functional
[12] = test system: Candida parapsilosis; assay: Antifungal activity against Candida parapsilosis NRRL Y-12696 after 24 hr by NCCLS broth microdilution method; format: functional; details: Lodderomyces parapsilosis, NRRL Y-12696, 24 h
[13] = test system: Pichia kudriavzevii; assay: Antifungal activity against Pichia kudriavzevii NRRL Y-7179 after 24 hr by NCCLS broth microdilution method; format: functional; details: NRRL Y-7179, 24 h
[14] = test system: Candida tropicalis; assay: Antifungal activity against Candida tropicalis NRRL Y-12968 after 24 hr by NCCLS broth microdilution method; format: functional; details: NRRL Y-12968, 24 h
[15] = test system: Cyberlindnera jadinii; assay: Antifungal activity against Cyberlindnera jadinii NRRL Y-900 after 24 hr by NCCLS broth microdilution method; format: functional; details: Williopsis jadinii, NRRL Y-900, 24 h
[16] = test system: Botrytis cinerea; assay: Antifungal activity against Botryotinia fuckeliana at 0.3 to 30 uM after 48 to 72 hr by broth microdilution method; format: functional, organism-based
[17] = test system: Candida albicans; assay: Antifungal activity against Candida albicans ATCC 90028 after 24 hr by NCCLS broth microdilution method; format: functional; details: ATCC 90028, 24 h
[18] = test system: Candida albicans; assay: Antifungal activity against Candida albicans clinical isolate after 24 hr by NCCLS broth microdilution method; format: functional
[19] = test system: Candida tropicalis; assay: Antifungal activity against Candida tropicalis NRRL Y-12968 at 2000 ug/ml by agar diffusion method; format: functional; details: read-out: IZ
[20] = test system: Candida albicans; assay: Antifungal activity against Candida albicans clinical isolate at 2000 ug/ml by agar diffusion method; format: functional; details: read-out: IZ
[21] = target: Transcription factor Sp1 (Homo sapiens, UniProt P08047); assay: Inhibition of Sp1 (unknown origin) up to 25 ug/ml by luciferase reporter gene assay
[22] = test system: SW1353; assay: Inhibition of PMA-induced NFkappaB activity in Homo sapiens (human) SW1353 cells up to 25 ug/ml incubated for 30 min followed by PMA induction for 8 hr by luciferase reporter gene assay; format: cell-based
[23] = test system: SK-OV-3; assay: Cytotoxicity against Homo sapiens (human) SKOV3 cells assessed as cell viability up to 25 ug/ml after 48 hr by neutral red assay; format: functional, cell-based
[24] = target: T1, Nitric oxide synthase, inducible (Mus musculus, UniProt P29477); assay: Inhibition of iNOS in Mus musculus (mouse) RAW264.7 cells assessed as inhibition of LPS-induced nitrite production incubated for 30 min prior to LPS challenge measured after 24 hr by Griess assay; format: cell-based
T1 sequence (P29477 whole entry): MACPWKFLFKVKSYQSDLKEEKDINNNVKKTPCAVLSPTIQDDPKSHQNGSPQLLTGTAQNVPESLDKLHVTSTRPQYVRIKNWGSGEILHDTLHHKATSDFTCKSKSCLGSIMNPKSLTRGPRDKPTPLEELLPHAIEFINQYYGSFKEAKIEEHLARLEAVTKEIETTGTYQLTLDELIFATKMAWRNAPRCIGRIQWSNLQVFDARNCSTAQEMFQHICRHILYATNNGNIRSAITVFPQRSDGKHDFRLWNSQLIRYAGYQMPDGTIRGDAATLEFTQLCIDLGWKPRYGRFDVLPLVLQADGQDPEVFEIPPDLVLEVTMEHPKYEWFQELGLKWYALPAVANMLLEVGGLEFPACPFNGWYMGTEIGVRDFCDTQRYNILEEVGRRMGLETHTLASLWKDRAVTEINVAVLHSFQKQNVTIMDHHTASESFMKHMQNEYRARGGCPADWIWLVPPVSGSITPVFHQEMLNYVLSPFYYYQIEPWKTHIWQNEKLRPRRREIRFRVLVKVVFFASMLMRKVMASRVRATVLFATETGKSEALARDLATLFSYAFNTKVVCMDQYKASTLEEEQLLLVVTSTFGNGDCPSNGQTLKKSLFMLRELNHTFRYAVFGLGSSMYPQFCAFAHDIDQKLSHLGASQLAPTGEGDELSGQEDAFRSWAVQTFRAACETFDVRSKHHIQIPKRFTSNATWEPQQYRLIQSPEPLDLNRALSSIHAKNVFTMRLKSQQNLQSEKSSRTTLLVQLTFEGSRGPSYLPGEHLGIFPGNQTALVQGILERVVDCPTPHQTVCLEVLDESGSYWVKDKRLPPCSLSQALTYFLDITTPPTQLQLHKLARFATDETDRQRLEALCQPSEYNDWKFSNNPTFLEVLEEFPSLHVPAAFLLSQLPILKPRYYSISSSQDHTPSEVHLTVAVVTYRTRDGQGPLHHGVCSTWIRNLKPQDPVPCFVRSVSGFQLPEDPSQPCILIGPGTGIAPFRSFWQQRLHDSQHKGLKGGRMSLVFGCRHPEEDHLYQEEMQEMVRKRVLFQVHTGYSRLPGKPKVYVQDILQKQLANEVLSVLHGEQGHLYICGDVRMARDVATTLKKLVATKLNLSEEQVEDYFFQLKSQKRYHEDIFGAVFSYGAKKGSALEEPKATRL

[25] = target: T2, Nitric oxide synthase, inducible (Mus musculus) (UniProt P29477); assay: Inhibition of iNOS in Mus musculus (mouse) RAW264.7 cells assessed as inhibition of LPS-induced nitrite production up to 25 ug/ml incubated for 30 min prior to LPS challenge measured after 24 hr by Griess assay relative to vehicle-treated control; format: cell-based
T2 sequence (whole entry): T1 sequence (P29477 whole entry)

[26] = test system: HL-60; assay: Antioxidant activity in PMA-stimulated Homo sapiens (human) HL60 cells assessed as inhibition of intracellular ROS generation incubated for 30 min prior to PMA stimulation measured after 30 min by DCFH-DA assay; format: functional, cell-based
[27] = test system: HL-60; assay: Cytotoxicity against Homo sapiens (human) HL60 cells up to 25 ug/ml; format: cell-based

Sequence of Transcription factor Sp1 (P08047 whole entry): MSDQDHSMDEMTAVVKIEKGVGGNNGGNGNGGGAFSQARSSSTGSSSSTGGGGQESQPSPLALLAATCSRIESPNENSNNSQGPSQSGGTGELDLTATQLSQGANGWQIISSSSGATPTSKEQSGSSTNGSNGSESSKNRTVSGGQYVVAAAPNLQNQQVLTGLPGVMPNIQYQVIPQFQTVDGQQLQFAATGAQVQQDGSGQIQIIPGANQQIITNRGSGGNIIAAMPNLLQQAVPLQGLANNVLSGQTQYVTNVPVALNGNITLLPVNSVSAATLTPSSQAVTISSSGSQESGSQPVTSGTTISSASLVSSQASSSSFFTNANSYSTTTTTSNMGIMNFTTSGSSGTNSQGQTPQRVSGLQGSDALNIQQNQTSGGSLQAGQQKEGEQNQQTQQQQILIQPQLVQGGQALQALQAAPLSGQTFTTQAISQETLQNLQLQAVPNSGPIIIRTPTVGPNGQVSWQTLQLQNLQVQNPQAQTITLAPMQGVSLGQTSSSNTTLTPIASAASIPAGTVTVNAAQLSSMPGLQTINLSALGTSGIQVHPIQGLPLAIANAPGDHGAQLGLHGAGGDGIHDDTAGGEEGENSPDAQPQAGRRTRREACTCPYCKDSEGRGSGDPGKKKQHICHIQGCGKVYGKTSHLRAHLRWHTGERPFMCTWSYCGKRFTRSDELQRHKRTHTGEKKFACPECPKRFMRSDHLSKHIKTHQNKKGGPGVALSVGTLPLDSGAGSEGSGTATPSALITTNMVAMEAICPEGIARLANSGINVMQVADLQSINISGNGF

CC(=O)N1N=C(c2ccc(F)cc2)OC1c1ccccc1 (configuration not stated)
Activity [1]: Non-toxic
inhibition [2]: inactive
IC50 [3]: 31.3 µg/mL (≈ 110 µM)
Activity [4]: Not Active
Activity [5]: Not Active
Activity [6]: inactive
Activity [7]: inactive
Activity [8]: inactive
Activity [9]: inactive
MIC [10]: 500 µg/mL (≈ 1760 µM)
MIC [11]: 1000 µg/mL (≈ 3520 µM)
MIC [12]: 1000 µg/mL (≈ 3520 µM)
MIC [13]: 1000 µg/mL (≈ 3520 µM)
MIC [14]: 1000 µg/mL (≈ 3520 µM)
MIC [15]: 1000 µg/mL (≈ 3520 µM)
Activity [16]: inactive
MIC [17]: 1000 µg/mL (≈ 3520 µM)
MIC [18]: 500 µg/mL (≈ 1760 µM)
zone of inhibition at 2000 µg/mL [19]: 9 mm
zone of inhibition at 2000 µg/mL [20]: 9 mm
inhibition (INH) [21]: Not Active
inhibition [22]: inactive
Activity [23]: inactive
pIC50 [24]: < 4.06

COc1ccc(/C=N/NC(=O)c2ccc(F)cc2)cc1
inhibition [25]: inactive
Activity [1]: Non-toxic
IC50 [26]: 2.5 µg/mL (≈ 9.18 µM)
IC50 [3]: 20 µg/mL (≈ 73.5 µM)
Activity [4]: Not Active
Activity [5]: Not Active
Activity [6]: inactive
Activity [7]: inactive
Activity [8]: inactive
MIC [10]: 500 µg/mL (≈ 1840 µM)
MIC [11]: 250 µg/mL (≈ 918 µM)
MIC [12]: 500 µg/mL (≈ 1840 µM)
MIC [13]: 500 µg/mL (≈ 1840 µM)
MIC [14]: 1000 µg/mL (≈ 3670 µM)
MIC [15]: 500 µg/mL (≈ 1840 µM)
MIC [17]: 500 µg/mL (≈ 1840 µM)
zone of inhibition at 2000 µg/mL [19]: 9 mm
zone of inhibition at 2000 µg/mL [20]: 9 mm
inhibition (INH) [21]: Not Active
inhibition [22]: inactive
Activity [23]: inactive

CC(=O)N1N=C(c2ccc(F)cc2)OC1c1ccc(N(C)C)cc1 (configuration not stated)
Activity [1]: Non-toxic
inhibition [2]: inactive
Activity [27]: Non-toxic
Activity [4]: Not Active
Activity [5]: Not Active
Activity [6]: inactive
Activity [7]: inactive
Activity [8]: inactive
Activity [9]: inactive
MIC [10]: 500 µg/mL (≈ 1530 µM)
MIC [11]: 500 µg/mL (≈ 1530 µM)
MIC [12]: 1000 µg/mL (≈ 3050 µM)
MIC [13]: 500 µg/mL (≈ 1530 µM)
MIC [14]: 500 µg/mL (≈ 1530 µM)
MIC [15]: 500 µg/mL (≈ 1530 µM)
Activity [16]: inactive
MIC [17]: 500 µg/mL (≈ 1530 µM)
MIC [18]: 250 µg/mL (≈ 764 µM)
zone of inhibition at 2000 µg/mL [19]: 9 mm
zone of inhibition at 2000 µg/mL [20]: 9 mm
inhibition (INH) [21]: Not Active
inhibition [22]: inactive
Activity [23]: inactive
pIC50 [24]: 4.21

CN(C)c1ccc(/C=N/NC(=O)c2ccc(F)cc2)cc1
inhibition [25]: inactive
Activity [1]: Non-toxic
IC50 [26]: 23 µg/mL (≈ 80.6 µM)
IC50 [3]: > 31.2 µg/mL
Activity [4]: Not Active
Activity [5]: Not Active
Activity [6]: inactive
Activity [7]: inactive
Activity [8]: inactive
MIC [10]: 500 µg/mL (≈ 1750 µM)
MIC [11]: 125 µg/mL (≈ 438 µM)
MIC [12]: 500 µg/mL (≈ 1750 µM)
MIC [13]: 500 µg/mL (≈ 1750 µM)
MIC [14]: 500 µg/mL (≈ 1750 µM)
MIC [15]: 500 µg/mL (≈ 1750 µM)
MIC [17]: 500 µg/mL (≈ 1750 µM)
zone of inhibition at 2000 µg/mL [19]: 9 mm
zone of inhibition at 2000 µg/mL [20]: 9 mm
inhibition (INH) [21]: Not Active
inhibition [22]: inactive
Activity [23]: inactive

COc1ccc(/C=N/NC(=O)c2ccc(F)cc2)cc1O
Activity [1]: Non-toxic
IC50 [26]: 0.9 µg/mL (≈ 3.12 µM)
Activity [27]: Non-toxic
Activity [4]: Not Active
Activity [5]: Not Active
Activity [6]: inactive
Activity [7]: inactive
Activity [8]: inactive
MIC [10]: 500 µg/mL (≈ 1730 µM)
MIC [11]: 250 µg/mL (≈ 867 µM)
MIC [12]: 500 µg/mL (≈ 1730 µM)
MIC [13]: 500 µg/mL (≈ 1730 µM)
MIC [14]: 250 µg/mL (≈ 867 µM)
MIC [15]: 500 µg/mL (≈ 1730 µM)
MIC [17]: 500 µg/mL (≈ 1730 µM)
zone of inhibition at 2000 µg/mL [19]: 9 mm
zone of inhibition at 2000 µg/mL [20]: 9 mm
inhibition (INH) [21]: Not Active
inhibition [22]: inactive
Activity [23]: inactive
pIC50 [24]: 4.12

Cc1c(C)c2c(c(C)c1O)CCC(C)(C(=O)O)O2 (configuration not stated) [TROLOX]
IC50 [26]: 0.3 µg/mL (≈ 1.2 µM)
